IC50 and melting point data for 37 compounds are collected here from US6403586B1, “Pyridazine derivatives and drugs containing the same as the active ingredient” (Kowa Co., Ltd., priority 1998, dated 2002).

A word on the IC50: it is the midpoint of a concentration-inhibition curve. A low value points to inhibition by little substance. As a reminder, the melting point is the temperature, or range, at which the solid turns liquid.

The first series has as its system Interleukin-1β (IL-1β) Production in HL-60 cells. Description: Inhibitory activity against interleukin-1β production (Test 1). It is filed as cell-based. To be noted: Homo sapiens, 72 h, lipopolysaccharide 10 μg/ml, culturing for 3 days, compared with control without test sample. The procedure: (Inhibitory activity against interleukin-1β production)
HL-60 cells were cultured for 4 days until confluence on RPMI 1640 medium with 10% fetal bovine serum (FBS) added thereto. The medium was centrifuged. The supernatant was discarded, and the cells were then suspended at 1×10^6 cells/me on RPMI 1640 medium with 3% FBS, and lipopolysaccharide was added to give a final concentration of 10 μg/ml. The culture was inoculated at 1 ml/well to a 24-well plate. A test compound was added at 1 μl/well, followed by culturing for 3 days. Three days later, the amount of interleukin-1β in each […] was determined by a comparison in yield with a control to which no test sample was added.
`COc1ccc(-c2cc(=O)n(CCCl)nc2-c2ccc(OC)cc2)cc1` [Comp. Comp'd 1, reference compound] registered an IC50 of 29 µM. This counts as double-digit micromolar.
Still for that read-out and setting: the result for `COc1ccc(-c2cc(=O)n(CCO)nc2-c2ccc(OC)cc2)cc1` [Comp. Comp'd 2, reference compound] reads 46 µM; that for `COc1ccc(-c2cc(=O)[nH]nc2-c2ccc(OC)cc2)cc1` [Comp. Comp'd 4, reference compound], 31.6 µM; that for `CNC(=O)c1cc(-c2ccc(OC)cc2)nn(CC(C)C)c1=O` [Example 43, 2-Isobutyl-6-(4-methoxyphenyl)-4-methylcarbamoyl-2H-pyridazin-3-one], 0.357 µM.
Still for that read-out and setting: the result for `CNC(=O)c1cc(-c2ccc(OC)cc2)nn(CC2CC2)c1=O` [Example 61, 2-Cyclopropylmethyl-6-(4-methoxyphenyl)-4-methylcarbamoyl-2H-pyridazin-3-one] reads 0.038 µM.
With `CNC(=O)c1cc(-c2ccc(OC)c(F)c2)nn(CC2CC2)c1=O` [Example 63, 2-Cyclopropylmethyl-6-(3-fluoro-4-methoxyphenyl)-4-methylcarbamoyl-2H-pyridazin-3-one], the IC50 stood at 0.31 µM.
Still for that read-out and setting: the result for `CCNC(=O)c1cc(-c2ccc(OC)cc2)nn(CC2CC2)c1=O` [Example 66, 2-Cyclopropylmethyl-4-ethylcarbamoyl-6-(4-methoxyphenyl)-2H-pyridazin-3-one] reads 0.11 µM; that for `CCOC(=O)Nc1cc(-c2ccc(OC)cc2)nn(CC=Cc2ccc(Cl)cc2)c1=O` [Example 87, 2-(4-Chlorocinnamyl)-4-ethoxycarbonylamino-6-(4-methoxyphenyl)-2H-pyridazin-3-one], 0.05 µM.
Same read-out and setting: the result for `COc1ccc(-c2cc(N)c(=O)n(CC=Cc3ccc(Cl)cc3)n2)cc1` [Example 111, 4-amino-2-(4-chlorocinnamyl)-6-(4-methoxyphenyl)-2H-pyridazin-3-one] reads 0.53 µM.

Tested on in a further series: not given
Experiment: not given
Details: not given
`CNC(=O)c1cc(-c2ccc(OC)cc2)nn(CC(C)C)c1=O` [Example 43, 2-Isobutyl-6-(4-methoxyphenyl)-4-methylcarbamoyl-2H-pyridazin-3-one] showed a melting point of 124.9 to 125.2 °C.
The same measure, in the same setting: the same measure for `CNC(=O)c1cc(-c2ccc(OC)cc2)nn(CC2CC2)c1=O` [Example 61, 2-Cyclopropylmethyl-6-(4-methoxyphenyl)-4-methylcarbamoyl-2H-pyridazin-3-one]: 136.6 to 137.5 °C.
Same read-out and setting: the result for `CCNC(=O)c1cc(-c2ccc(OC)cc2)nn(CC2CC2)c1=O` [Example 66, 2-Cyclopropylmethyl-4-ethylcarbamoyl-6-(4-methoxyphenyl)-2H-pyridazin-3-one] reads 136.3 to 136.9 °C.
Same read-out and setting: the same measure for `COc1ccc(-c2cc(C(=O)NCc3ccccc3)c(=O)n(C)n2)cc1` [Example 77, 4-Benzylcarbamoyl-6-(4-methoxyphenyl)-2-methyl-2H-pyridazin-3-one]: 144.8 to 145.8 °C; for `COc1ccc(-c2cc(C(=O)NCc3ccccn3)c(=O)n(C)n2)cc1` [Example 78, 6-(4-Methoxyphenyl)-2-methyl-4-(2-pyridylmethyl)carbamoyl-2H-pyridazin-3-one]: 122.4 to 122.9 °C; for `CNC(=O)c1cc(-c2ccc(OC)cc2)nn(Cc2ccc(NC(=O)c3cccnc3)cc2)c1=O` [Example 81, 6-(4-Methoxyphenyl)-4-methylcarbamoyl-2-[4-(3-pyridylcarbonylamino)benzyl]-2H-pyridazin-3-one]: 226.7 to 227.6 °C (dec.).
In the case of `CNC(=O)c1cc(-c2ccc(OC)cc2)nn(Cc2ccc(Cl)cc2Cl)c1=O` [Example 82, 2-(2,4-Dichlorobenzyl)-6-(4-methoxy-phenyl)-4-methylcarbamoyl-2H-pyridazin-3-one], the melting point is 154.2 to 156.2 °C.
On the same count and under the same terms, the same measure for `CNC(=O)c1cc(-c2ccc(OC)cc2)nn(CC=Cc2ccc(Cl)cc2)c1=O` [Example 85, 2-(4-Chlorocinnamyl)-6-(4-methoxyphenyl)-4-methylcarbamoyl-2H-pyridazin-3-one]: 184.2 to 185.4 °C; for `COc1ccc(-c2cc(C(=O)O)c(=O)n(CC=Cc3ccc(Cl)cc3)n2)cc1` [Example 86, 4-Carboxy-2-(4-chlorocinnamyl)-6-(4-methoxyphenyl)-2H-pyridazin-3-one]: 222.6 to 224 °C (dec.); for `CCOC(=O)Nc1cc(-c2ccc(OC)cc2)nn(CC=Cc2ccc(Cl)cc2)c1=O` [Example 87, 2-(4-Chlorocinnamyl)-4-ethoxycarbonylamino-6-(4-methoxyphenyl)-2H-pyridazin-3-one]: 171.2 to 172.1 °C.
As to `COc1ccc(-c2cc(NC(=O)OC(C)C)c(=O)n(CC=Cc3ccc(Cl)cc3)n2)cc1` [Example 88, 2-(4-chlorocinnamyl)-6-(4-methoxyphenyl)-4-isopropoxycarbonylamino-2H-pyridazin-3-one], the melting point fell in the range of 123.9 to 127.4 °C.
Same read-out and setting: the same measure for `CCCCOC(=O)Nc1cc(-c2ccc(OC)cc2)nn(CC=Cc2ccc(Cl)cc2)c1=O` [Example 89, 4-n-butoxycarbonylamino-2-(4-chlorocinnamyl)-6-(4-methoxyphenyl)-2H-pyridazin-3-one]: 150.2 to 150.9 °C; for `COc1ccc(-c2cc(NC(=O)OCc3ccccc3)c(=O)n(CC=Cc3ccc(Cl)cc3)n2)cc1` [Example 90, 4-benzyloxycarbonylamino-2-(4-chlorocinnamyl)-6-(4-methoxyphenyl)-2H-pyridazin-3-one]: 190.5 to 191.7 °C; for `COc1ccc(-c2cc(NC(=O)OCc3ccc(SC)cc3)c(=O)n(CC=Cc3ccc(Cl)cc3)n2)cc1` [Example 91, 2-(4-chlorocinnamyl)-6-(4-methoxyphenyl)-4-[4-(methylthio)benzyloxycarbonylamino]-2H-pyridazin-3-one]: 187.6 to 188.7 °C.
The same measure, in the same setting: the result for `COc1ccc(-c2cc(C(=O)O)c(=O)n(CC=C(C)C)n2)cc1` [Example 92, 4-carboxy-6-(4-methoxyphenyl)-2-(3-methyl-2-butenyl)-2H-pyridazin-3-one] reads 153.5 to 156.6 °C; that for `CCOC(=O)Nc1cc(-c2ccc(OC)cc2)nn(CC=C(C)C)c1=O` [Example 93, 4-ethoxycarbonylamino-6-(4-methoxy-phenyl)-2-(3-methyl-2-butenyl)-2H-pyridazin-3-one], 130.2 to 131.2 °C.
As for `CCOC(=O)Nc1cc(-c2ccc(OC)cc2)nn(CC2CC2)c1=O` [Example 95, 2-cyclopropylmethyl-4-ethoxycarbonylamino-6-(4-methoxyphenyl)-2H-pyridazin-3-one], the melting point is 119.1 to 119.6 °C.
Same read-out and setting: the same measure for `CCOC(=O)Nc1cc(-c2ccc(OC)cc2)nn(Cc2ccccc2)c1=O` [Example 97, 2-benzyl-4-ethoxycarbonylamino-6-(4-methoxyphenyl)-2H-pyridazin-3-one]: 152.1 to 162.5 °C; for `COc1ccc(-c2cc(C(=O)O)c(=O)n(CC=Cc3ccc(Cl)cc3)n2)cc1Cl` [Example 105, 4-carboxy-2-(4-chlorocinnamyl)-6-(3-chloro-4-methoxyphenyl)-2H-pyridazin-3-one]: 183 to 183.8 °C; for `COc1ccc(-c2cc(N)c(=O)n(CC=Cc3ccc(Cl)cc3)n2)cc1` [Example 111, 4-amino-2-(4-chlorocinnamyl)-6-(4-methoxyphenyl)-2H-pyridazin-3-one]: 142.7 to 143.2 °C.
`COc1ccc(-c2cc(NC(C)=O)c(=O)n(CC=Cc3ccc(Cl)cc3)n2)cc1` [Example 113, 4-acetylamino-2-(4-chlorocinnamyl)-6-(4-methoxyphenyl)-2H-pyridazin-3-one] had a melting point of 158.7 to 161.9 °C.
The same measure, in the same setting: the same measure for `CCC(=O)Nc1cc(-c2ccc(OC)cc2)nn(CC=Cc2ccc(Cl)cc2)c1=O` [Example 114, 2-(4-chlorocinnamyl)-6-(4-methoxy-phenyl)-4-propionylamino-2H-pyridazin-3-one]: 147.7 to 148.6 °C; for `CNc1cc(-c2ccc(OC)cc2)nn(CC=Cc2ccc(Cl)cc2)c1=O` [Example 117, 2-(4-chlorocinnamyl)-6-(4-methoxyphenyl)-4-methylamino-2H-pyridazin-3-one]: 148.4 to 149.2 °C; for `COc1ccc(-c2cc(NC(=O)OCCCCCc3ccccc3)c(=O)n(CC=Cc3ccc(Cl)cc3)n2)cc1` [Example 118, 2-(4-chlorocinnamyl)-6-(4-methoxyphenyl)-4-[N-(3-phenylpropyl)ethoxycarbonylamino]-2H-pyridazin-3-one]: 113.5 to 114.2 °C.
On the same count and under the same terms, the same measure for `COc1ccc(-c2cc(N)c(=O)n(Cc3ccccc3)n2)cc1` [Example 121, 4-amino-2-benzyl-6-(4-methoxyphenyl)-2H-pyridazin-3-one]: 115.1 to 115.6 °C; for `COc1ccc(-c2cc(NS(C)(=O)=O)c(=O)n(Cc3ccccc3)n2)cc1` [Example 122, 2-benzyl-4-methanesulfonylamino-6-(4-methoxyphenyl)-2H-pyridazin-3-one]: 195 to 195.5 °C.
Same read-out and setting: the same measure for `COc1ccc(-c2cc(NC(=O)NC(C)C)c(=O)n(Cc3ccccc3)n2)cc1` [Example 123, 2-benzyl-4-(3-isopropylureido)-6-(4-methoxyphenyl)-2H-pyridazin-3-one]: 200.2 to 201 °C.
Compound `COc1ccc(-c2cc(N)c(=O)n(CC3CC3)n2)cc1` [Example 124, 4-amino-2-cyclopropylmethyl-6-(4-methoxyphenyl)-2H-pyridazin-3-one] showed a melting point of 110.8 to 111.3 °C.
Same read-out and setting: the result for `COc1ccc(-c2cc(NC(=O)NC(C)C)c(=O)n(CC3CC3)n2)cc1` [Example 125, 2-cyclopropylmethyl-4-(3-isopropylureido)-6-(4-methoxyphenyl)-2H-pyridazin-3-one] reads 195.8 to 197 °C.
Still for that read-out and setting: the same measure for `COc1ccc(-c2cc(NS(C)(=O)=O)c(=O)n(CC3CC3)n2)cc1` [Example 126, 2-cyclopropylmethyl-4-methanesulfonylamino-6-(4-methoxyphenyl)-2H-pyridazin-3-one]: 203.3 to 203.9 °C.
The same measure, in the same setting: the result for `NC(=O)c1cc(-c2ccc(F)c(Cl)c2)nn(CC=Cc2ccccc2)c1=O` [Example 127, 4-carbamoyl-6-(3-chloro-4-fluorophenyl)-2-cinnamyl-2H-pyridazin-3-one] reads 211 to 212 °C; that for `CNC(=S)c1cc(-c2ccc(OC)c(F)c2)nn(CC2CC2)c1=O` [Example 129, 2-cyclopropylmethyl-6-(3-fluoro-4-methoxyphenyl)-4-methylthiocarbamoyl-2H-pyridazin-3-one], 178 to 178.5 °C.
Compound `CNC(=S)c1cc(-c2ccc(OC)cc2)nn(CC(C)C)c1=O` [Example 130, 2-isobutyl-6-(4-methoxyphenyl)-4-methylthiocarbamoyl-2H-pyridazin-3-one] displayed a melting point of 116 to 116.6 °C.
